Test results from patent US11261152B2, “Inhibitors of the N-terminal domain of the androgen receptor” (The Regents of the University of California, priority 2017, dated 2022).

Legend:
[1] = test system: AR positive PCa cells (LNCaP, LNCaP-AR, CWR22, 22Rv1, LAPC4); experiment: MTT / CellTiter GLO cell viability, AR positive prostate cancer cells; settings: for MTT AR-Pos: Table 3 grade HIGH/MED/LOW, grades not defined
Description: (§1) The results are means of quadruplicate expts±s.d. Top panel: CellTiter GLO luminescent bioassay (arbitrary units on vertical axis). Bottom panel: classical MTT assay ([blue/yellow]=[viable/non-viable]).
(§2) Experiments were performed in quadruplicate; results are means+/−s.d.
Results were normalized to that of vehicle control. Experiments were performed in quadruplicate; results are means+/−s.d.
Next, the effects of the compounds on growth of prostate cancer cell lines in vitro were evaluated.

[2] = test system: androgen response element (ARE); experiment: ARE reporter assay (tandem copies of the androgen response element); assay type: cell-based; settings: for ARE: Table 3 grade HIGH/MED/LOW, grades not defined
Description: FIG. 11A. Effects of JN series compounds in reporter assays for androgen response element. Experiments were performed in triplicate and results are means+/−s.d.

[3] = test system: AR transcriptional activity (MMTV reporter); experiment: MMTV reporter assay; assay type: cell-based; settings: Table 3 grade HIGH/MED/LOW, grades not defined
[4] = test system: AR-null PCa cells (DU145, PC3); experiment: MTT / CellTiter GLO cell viability, AR-null prostate cancer cells; settings: Table 3 grade HIGH/MED/LOW, grades not defined
Description: as §1, §2
AR null PC3 cells were exposed to the indicated compounds for 6 days; cell viability was measured by MTT assay. Results were normalized to that of vehicle control. Experiments were performed in quadruplicate; results are means+/−s.d.
For each compound and concentration in the figure, the bars represent relative cell viability of 22Rv1, LAPC4, and DU145, from left to right.
For each compound and concentration in the figure, the bars represent relative cell viability of CWR22 and PC3, from left to right.

[5] = test system: glucocorticoid response element (GRE) / glucocorticoid receptor; experiment: GRE reporter assay; assay type: cell-based; settings: Table 3 grade HIGH/MED/LOW, grades not defined
Description: FIG. 11B. Effects of JN series compounds in reporter assays for glucocorticoid response element. Experiments were performed in triplicate and results are means+/−s.d.

| SMILES | MTT AR-Pos [1] | MMTV [3] | also measured |
| --- | --- | --- | --- |
| O=C(CC1CO1)/C(=C/c1ccc(Cl)cc1)c1ccccc1 (centres unmarked) [JN097, (E)-4-(4-Chlorophenyl)-1-(oxiran-2-yl)-3-phenylbut-3-en-2-one] | – | – | growth inhibitory / suppressive effects as compared to JN018 ([1]; result in words): enhanced growth inhibitory effects; reporter activity driven by the ARE ([2]; result in words): inhibited reporter activity |
| C=C(CN(C)Cc1ccccc1)C(=O)/C(=C\c1ccc(Cl)cc1)c1ccccc1.Cl [JN019] | LOW | – | – |
| C=C(CN(C)Cc1ccccc1)C(=O)/C(=C/c1ccc(Br)cc1)c1ccccc1.Cl [JN021] | LOW | LOW | MTT AR-Neg [4]: MED |
| C=CC(O)/C(=C\c1ccc(OC)cc1)c1ccccc1 (centres unmarked) [JN014] | – | MED | – |
| C=C(CN(C)Cc1ccccc1)C(=O)/C(=C/c1cc(Cl)cc(Cl)c1)c1ccccc1.Cl [JN068] | – | LOW | – |
| O=C(/C(=C/c1ccc(Cl)cc1)CN1CCOCC1)c1ccccc1 [JN029] | – | HIGH | ARE [2]: HIGH |
| C=C(CN(C)Cc1ccccc1)C(=O)/C(=C\c1ccc(C(F)(F)F)cc1)c1ccccc1.Cl [JN065] | MED | HIGH | MTT AR-Neg [4]: LOW |
| C=CC(O)/C(=C\c1ccc(C)cc1)c1ccccc1 (centres unmarked) [JN012] | – | LOW | – |
| C=C(C)C(=O)/C(=C\c1ccc(Cl)cc1)c1ccccc1 [JN025] | LOW | HIGH | MTT AR-Neg [4]: MED; ARE [2]: HIGH |
| C=C(CN(C)Cc1ccccc1)C(=O)/C(=C\c1ccc(Cl)cc1)c1ccc(N=[N+]=[N-])cc1.Cl [JN081] | – | MED | – |
| CN(C/C(=C\c1cccc(Br)c1)C(=O)c1ccccc1)Cc1ccccc1 [JN040] | – | HIGH | – |
| C=C(CN(C)Cc1ccccc1)C(=O)C(=Cc1ccco1)c1ccccc1.Cl [JN061] | – | LOW | – |
| C=CC(O)/C(=C\c1ccc(F)cc1)c1ccccc1 (centres unmarked) [JN011] | – | MED | – |
| C=C(CN(C)Cc1ccccc1)C(=O)/C(=C/c1ccc(Cl)c(Cl)c1)c1ccccc1.Cl [JN057] | MED | MED | GRE [5]: HIGH; MTT AR-Neg [4]: MED |
| CN(C/C(=C\c1ccc(Cl)cc1Cl)C(=O)c1ccccc1)Cc1ccccc1.Cl [JN045] | – | HIGH | – |
| C=C(CN(C)Cc1ccccc1)C(=O)/C(=C/c1ccc(Cl)cc1)c1ccccc1Cl.Cl [JN076] | HIGH | HIGH | MTT AR-Neg [4]: MED |
| C=C(CN(C)Cc1ccccc1)C(=O)/C(=C\c1cccc(Br)c1)c1ccccc1.Cl [JN070] | – | MED | – |
| C=C(CN(C)Cc1ccccc1)C(=O)/C(=C/c1ccccc1)c1ccccc1.Cl [JN062] | HIGH | LOW | MTT AR-Neg [4]: HIGH |
| C=C(CN(C)Cc1ccccc1)C(=O)/C(=C\c1ccc(Br)cc1)c1ccccc1.Cl [JN020] | LOW | LOW | – |
| C=C(C)C(=O)NC(=O)/C(=C/c1cccs1)c1ccccc1 [JN128] | – | – | growth of AR expressing prostate cancer cells ([1]; result in words): selective growth inhibitory effects |
| CN(C/C(=C\c1ccc(Cl)c(Cl)c1)C(=O)c1ccccc1)Cc1ccccc1 [JN031] | – | LOW | ARE [2]: LOW |
| C=C(CN(C)Cc1ccccc1)C(=O)/C(=C/c1cccc(C(F)(F)F)c1)c1ccccc1.Cl [JN073] | – | LOW | – |

| SMILES | MTT AR-Pos [1] | MMTV [3] | also measured |
| --- | --- | --- | --- |
| C=C(CN(C)Cc1ccccc1)C(=O)/C(=C\c1ccc(F)cc1)c1ccccc1.Cl [JN055] | – | MED | GRE [5]: HIGH; ARE [2]: MED |
| Cc1ccccc1/C=C(\CN(C)Cc1ccccc1)C(=O)c1ccccc1 [JN049] | – | HIGH | – |
| C=C(CN(C)Cc1ccccc1)C(=O)/C(=C/c1ccc(Cl)cc1)c1ccc(Cl)cc1.Cl [JN074] | HIGH | HIGH | MTT AR-Neg [4]: HIGH |
| C=C(CN(C)Cc1ccccc1)C(=O)/C(=C/c1ccc(C)cc1)c1ccccc1.Cl [JN066] | – | LOW | – |
| C=C(CN(C)C)C(=O)/C(=C\c1ccc(Cl)cc1)c1ccccc1.Cl [JN023] | LOW | LOW | MTT AR-Neg [4]: LOW |
| C=C(CN(C)Cc1ccccc1)C(=O)/C(=C/c1ccc(Cl)cc1)c1cccc(Cl)c1.Cl [JN075] | HIGH | MED | MTT AR-Neg [4]: HIGH |
| CN1CCN(CCC(=O)/C(=C\c2ccc(Cl)cc2)c2ccccc2)CC1.Cl [JN009] | – | LOW | – |
| C=C(CN(C)Cc1ccccc1)C(=O)/C(=C\c1ccc(Cl)c(Cl)c1)c1ccccc1.Cl [JN058] | – | LOW | – |
| C=CC(O)/C(=C/c1ccc(Cl)cc1)c1ccccc1 (centres unmarked) [JN005, (E)-1-(4-Chlorophenyl)-2-phenylpenta-1,4-dien-3-ol] | – | MED | – |
| C=C(C)C(O)/C(=C\c1ccc(Cl)cc1)c1ccccc1 (centres unmarked) [JN034] | MED | MED | MTT AR-Neg [4]: LOW |
| C=C(C)C(=O)/C(=C/c1ccc(Cl)cc1)c1ccccc1 [JN032] | HIGH | HIGH | MTT AR-Neg [4]: LOW |
| C=C(CN(C)Cc1ccccc1)C(=O)/C(=C/c1ccc(Cl)cc1F)c1ccccc1.Cl [JN083] | MED | HIGH | MTT AR-Neg [4]: MED; ARE [2]: LOW |
| CN(CCC(=O)/C(=C\c1ccc(Cl)cc1)c1ccccc1)Cc1ccccc1.Cl [JN002, (Z)-5-(Benzyl(methyl)amino)-1-(4-chlorophenyl)-2-phenylpent-1-en-3-one hydrochloride] | – | LOW | – |
| CN(C/C(=C\c1cccc(Cl)c1Cl)C(=O)c1ccccc1)Cc1ccccc1.Cl [JN042] | – | HIGH | – |
| C=CC(O)/C(=C\c1ccc(Br)cc1)c1ccccc1 (centres unmarked) [JN010] | – | LOW | – |
| CN(C/C(=C\c1ccc(F)cc1)C(=O)c1ccccc1)Cc1ccccc1 [JN030] | – | MED | ARE [2]: MED |
| C=C(CN(C)Cc1ccccc1)C(=O)/C(=C/c1ccc(Cl)c(F)c1)c1ccccc1.Cl [JN082] | LOW | LOW | MTT AR-Neg [4]: LOW; ARE [2]: LOW |
| C=C(CN(C)Cc1ccccc1)C(=O)/C(=C\c1ccc(C)cc1)c1ccccc1.Cl [JN067] | – | LOW | – |
| CN1CCN(C/C(=C\c2ccc(Cl)cc2)C(=O)c2ccccc2)CC1 [JN038] | HIGH | HIGH | MTT AR-Neg [4]: MED |
| O=C(/C(=C/c1ccc(Cl)cc1)CN1CCCCC1)c1ccccc1 [JN037] | – | MED | – |
| Cl.O=C(CCN1CCCC1)/C(=C\c1ccc(Cl)cc1)c1ccccc1 [JN006] | – | LOW | – |
| CN(C/C(=C\c1ccccc1Br)C(=O)c1ccccc1)Cc1ccccc1.Cl [JN041] | – | HIGH | – |

| SMILES | MTT AR-Pos [1] | MMTV [3] | also measured |
| --- | --- | --- | --- |
| C=C(CN(C)Cc1ccccc1)C(=O)/C(=C/c1cccc(F)c1)c1ccccc1.Cl [JN069] | – | MED | – |
| C=C(CN(C)Cc1ccccc1)C(=O)/C(=C/c1ccc(F)cc1)c1ccccc1.Cl [JN054] | LOW | MED | – |
| CN(C/C(=C\c1ccccc1)C(=O)c1ccccc1)Cc1ccccc1 [JN047] | – | HIGH | – |
| CN(C/C(=C\c1ccccc1Cl)C(=O)c1ccccc1)Cc1ccccc1.Cl [JN046] | – | HIGH | – |
| CN(CCC(=O)/C(=C\c1ccc(Cl)cc1)c1ccccc1)Cc1ccccc1 [JN001, (Z)-5-(Benzyl(methyl)amino)-1-(4-chlorophenyl)-2-phenylpent-1-en-3-one] | – | LOW | – |
| C=C(CN1CCCC1)C(=O)/C(=C/c1ccc(Cl)cc1)c1ccccc1.Cl [JN078] | – | LOW | – |
| C=C(CN(C)Cc1ccccc1)C(=O)/C(=C\c1ccccc1)c1ccccc1.Cl [JN063] | – | MED | – |
| C/C(=C\c1ccc(Cl)cc1)C(=O)c1ccccc1 [JN026, (E)-3-(4-Chlorophenyl)-2-methyl-1-phenylprop-2-en-1-one] | – | LOW | ARE [2]: LOW |
| C=C(CN1CCCCC1)C(=O)/C(=C/c1ccc(Cl)cc1)c1ccccc1.Cl [JN077] | LOW | HIGH | MTT AR-Neg [4]: LOW |
| C=CC(=O)/C(=C\c1ccc(Cl)cc1)c1ccccc1 [JN004, (Z)-1-(4-Chlorophenyl)-2-phenylpenta-1,4-dien-3-one] | – | LOW | – |
| C=C(CN(C)Cc1ccccc1)C(=O)/C(=C\c1cccc(C(F)(F)F)c1)c1ccccc1.Cl [JN072] | – | LOW | – |
| C=C(CN1CCNCC1)C(=O)/C(=C/c1ccc(Cl)cc1)c1ccccc1.Cl [JN079] | – | LOW | – |
| C=C(CN(C)Cc1ccccc1)C(=O)/C(=C\c1ccc(OC)cc1)c1ccccc1.Cl [JN056] | – | LOW | – |
| O=C(/C(=C/c1ccc(Cl)cc1)CN1CCCC1)c1ccccc1 [JN028] | – | HIGH | ARE [2]: HIGH |
| C=CC(O)/C(=C/c1ccc(C)cc1)c1ccccc1 (centres unmarked) [JN013] | – | MED | – |
| C=C(CN(C)Cc1ccccc1)C(=O)/C(=C/c1cccc(Br)c1)c1ccccc1.Cl [JN071] | – | LOW | – |
| CN(C)CCC(=O)/C(=C\c1ccc(Cl)cc1)c1ccccc1.Cl [JN007] | – | MED | – |
| COc1ccc(/C=C(\C(=O)CCN(C)C)c2ccccc2)cc1.Cl [JN016] | – | HIGH | – |
| CC(C)N(C/C(=C\c1ccc(Cl)cc1)C(=O)c1ccccc1)C(C)C [JN036] | MED/HIGH | HIGH | MTT AR-Neg [4]: LOW/MED |
| CC(C)CN(C/C(=C\c1ccc(Cl)cc1)C(=O)c1ccccc1)CC(C)C [JN035] | – | HIGH | – |
| C=C(C)C(O)/C(=C/c1ccc(Cl)cc1)c1ccccc1 (centres unmarked) [JN033] | LOW | MED | MTT AR-Neg [4]: LOW |
| C=C(CN(C)Cc1ccccc1)C(=O)/C(=C/c1ccc(Cl)cc1)c1ccc(N=[N+]=[N-])cc1.Cl [JN080] | LOW | HIGH | MTT AR-Neg [4]: LOW |
